Laboratory results as given in patent US4278676A, “Heterocyclic compounds” (H. Lundbeck & Co. A/S, priority 1977, dated 1981).
Like-named read-outs stand apart in the source and are kept apart here.

Columns and labels:
Acute toxicity (mice) = settings: mouse, in vivo
substantia nigra [1] = test: Bilateral injections into substantia nigra in rats; assay type: in vivo, rat
Procedure: (a) Bilateral injections. 0.1, 0.5, and 1.0 μg of Ia,HBr have been injected.

substantia nigra [2] = test: Unilateral injections into substantia nigra in rats; assay type: in vivo, rat
Procedure: (b) Unilateral injections. 0.1 and 0.5 μg of Ia,Hbr have been injected.

[3] = tested on: methylphenidate-induced gnawing; test: Potentiation of methylphenidate-induced gnawing; assay type: in vivo; settings: Mus musculus, read-out: ED50 (the dose which causes potentiation in 50% of the animals), mice
Excerpt: (a) Potentiation of methylphenidate-induced gnawing (Scheel-Kruger et al.: Muscimol differentially facilitates stereotypy but antagonizes motility induced by dopaminergic drugs. A complex GABA-DOPAMINE interaction. Life Sciences, 1978, Vol. 22, 75-84).

[4] = tested on: morphine-induced motility; test: Antagonism of morphine-induced motility; assay type: in vivo; settings: Mus musculus; mice; read-out: MED (minimum effective dose), morphine-induced motility
Excerpt: (b) Antagonism of morphine-induced motility (Christensen et al.: Muscimol antagonizes morphine hypermotility without potentiation of analgesia. European J. Pharmacol., 1978, 48, 459-462).

[5] = tested on: isoniazide-induced convulsions; test: Antagonism of isoniazide-induced convulsions; assay type: in vivo; settings: Mus musculus, ip; mice, test compound i.p., isoniazide 300 mg/kg s.c.; read-out: MED (minimum effective dose), isoniazide-induced convulsions
Procedure: (c) Antagonism of isoniazide-induced convulsions (Modification (mice, two times lower concentration of isoniazide) of Mao et al.: Evidence for an involvement of GABA in the mediation of cerebellar c-GMP decrease and the anticonvulsant action of diazepam. Naunyn-Smiedeberg's Arch. Pharmacol. 1975, 289, 369-378).
Conditions and procedure for isoniazide antagonism test:
Isoniazide 300 mg/kg s.c.
Five mice are used for each dose level. Immediately after administration of test substance, isoniazide 300 mg/kg is injected s.c. This dose of isoniazide induces intermittent tonic clonic seizures within 60 minutes. The calculations are performed as on "on line procedure" on the EDP-terminal.

[6] = tested on: lumbar dorsal horn interneurones and Renshaw cells; test: Microelectrophoretic experiments on central neurones of anaesthetized cats; assay type: in vivo; settings: bicuculline methochloride (BMC), cat central neurones
Procedure: In order to study the interactions of the compound Ia with the central GABA receptors in vivo, the compound Ia was tested in microelectrophoretic experiments. Experiments were performed on lumbar dorsal horn interneurones and Renshaw cells of cats anaesthetized with pentobarbitone sodium. The approximate potency of the depressant actions of the compound was assessed relative to that of GABA on the basis of electrophoretic currents required to produce equal and submaximal inhibitions of the firing of the central neurones. The inhibitory action of Ia on central neurones was antagonized by the specific GABA antagonist bicuculline methochloride (BMC).

GABA uptake system = test: Interaction with GABA uptake system; assay type: biochemical; set-up: dose or concentration left out as unconfirmed
[7] = biological target: GABA:2-oxo-glutarate aminotransferase (Homo sapiens, UniProt P80404); test: Interaction with GABA metabolizing enzyme (aminotransferase); assay type: biochemical; settings: concentrations of 10^-3 M
GABA:2-oxo-glutarate aminotransferase, sequence (P80404 29-500): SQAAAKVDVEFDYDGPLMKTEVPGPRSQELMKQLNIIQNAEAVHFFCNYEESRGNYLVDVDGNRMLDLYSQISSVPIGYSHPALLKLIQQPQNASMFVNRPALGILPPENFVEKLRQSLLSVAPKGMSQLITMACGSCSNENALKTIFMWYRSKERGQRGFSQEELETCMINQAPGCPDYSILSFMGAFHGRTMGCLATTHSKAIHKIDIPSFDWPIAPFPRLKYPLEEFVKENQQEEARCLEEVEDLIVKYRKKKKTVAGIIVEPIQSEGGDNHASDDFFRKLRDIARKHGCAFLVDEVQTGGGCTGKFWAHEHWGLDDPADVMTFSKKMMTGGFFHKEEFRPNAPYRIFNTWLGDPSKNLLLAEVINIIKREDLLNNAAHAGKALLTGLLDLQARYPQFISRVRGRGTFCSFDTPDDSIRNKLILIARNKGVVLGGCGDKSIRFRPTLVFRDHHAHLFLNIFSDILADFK

[8] = tested on: L-glutamate 1-carboxylase; test: Interaction with GABA metabolizing enzyme (carboxylase); assay type: biochemical; settings: concentrations of 10^-3 M
[9] = iv, read-out: Acute Toxicity (Mice) LD50 i.v.
[10] = po, read-out: Acute Toxicity (Mice) LD50 p.o.

SMILES	LD50 (Acute toxicity (mice); [9]) [mg/kg]	LD50 (Acute toxicity (mice); [10]) [mg/kg]	ED50 [3] [mg/kg]	minimal effective dose [4] [mg/kg]	minimal effective dose [5] [mg/kg]	Reversible antagonism by BMC [6]	also measured
Oc1noc2c1CCNC2 [Compound Ia,HBr, 3-Hydroxy-4,5,5,7-tetrahydroisoxazolo[5,4-pyridinium bromide]	80	> 320	3	1	1.3	–	Behaviour after bilateral injection into substantia nigra (substantia nigra [1]; 0.1, 0.5 and 1.0 μg injected): pronounced stereotypic behaviour; Behaviour after unilateral injection into substantia nigra (substantia nigra [2]; 0.1 and 0.5 μg injected): strong and prolonged contralateral turning
NCc1cc(=O)[nH]o1 [Muscimol,HBr, reference compound]	–	–	0.7	0.6	0.6	–	–
NCc1cc(=O)[nH]o1 [Muscimol, muscimol]	7	22	–	–	–	–	LD50 (Acute toxicity (mice); ip, read-out: Acute Toxicity (Mice) LD50 i.p.): 12 mg/kg
Oc1noc2c1CCNC2 [Ia, 4,5,6,7-Tetrahydroisoxazolo[5,4-c]pyridin-3-ol zwitterion]	–	–	–	–	–	yes	Interaction with the GABA uptake system (GABA uptake system): did not interact; Interaction with GABA:2-oxo-glutarate aminotransferase [7]: did not interact; Interaction with L-glutamate 1-carboxylase [8]: did not interact; Potency compared with muscimol, bilateral injection (substantia nigra [1]; substantia nigra): weaker than muscimol; Potency compared with muscimol, unilateral injection (substantia nigra [2]; substantia nigra): weaker than muscimol
NCCCC(=O)O [GABA, gamma-aminobutyric acid, reference compound]	–	–	–	–	–	yes	–
